Laboratory results reported in ChEMBL document CHEMBL1671673, “In vitro activity of colistin (polymyxin E) against 3,480 isolates of gram-negative bacilli obtained from patients in Canadian hospitals in the CANWARD study, 2007-2008” (Antimicrob Agents Chemother, 2009).

Assays:
Assay type in all cases: functional, organism-based
Design in all cases: scale not given: the % may be the effect or the level left
[1] = system: Pseudomonas aeruginosa; assay: Antibacterial activity against tazobactam-resistant Pseudomonas aeruginosa assessed as susceptible isolates at minimum inhibitory concentration of 2 ug/ml by CLSI broth microdilution method
[2] = system: Klebsiella oxytoca; assay: Antibacterial activity against Klebsiella oxytoca assessed as susceptible isolates at minimum inhibitory concentration of 8 ug/ml by CLSI broth microdilution method
[3] = system: Enterobacter cloacae; assay: Antibacterial activity against Enterobacter cloacae assessed as susceptible isolates at minimum inhibitory concentration of 4 ug/ml by CLSI broth microdilution method
[4] = system: Acinetobacter baumannii; assay: Antibacterial activity against Acinetobacter baumannii assessed as susceptible isolates at minimum inhibitory concentration of 0.12 ug/ml by CLSI broth microdilution method
[5] = system: Klebsiella pneumoniae; assay: Antibacterial activity against ESBL-producing Klebsiella pneumoniae assessed as susceptible isolates at minimum inhibitory concentration of 16 ug/ml by CLSI broth microdilution method
[6] = system: Pseudomonas aeruginosa; assay: Antibacterial activity against Pseudomonas aeruginosa assessed as susceptible isolates at minimum inhibitory concentration of <=2 ug/ml by CLSI broth microdilution method
[7] = system: Pseudomonas aeruginosa; assay: Antibacterial activity against Gentamicin-resistant Pseudomonas aeruginosa assessed as susceptible isolates at minimum inhibitory concentration of 8 ug/ml by CLSI broth microdilution method
[8] = system: Klebsiella pneumoniae; assay: Antibacterial activity against ESBL-producing Klebsiella pneumoniae assessed as susceptible isolates at minimum inhibitory concentration of 1 ug/ml by CLSI broth microdilution method
[9] = system: Pseudomonas aeruginosa; assay: Antibacterial activity against Ciprofloxacin-resistant Pseudomonas aeruginosa assessed as susceptible isolates at minimum inhibitory concentration of >16 ug/ml by CLSI broth microdilution method
[10] = system: Proteus mirabilis; assay: Antibacterial activity against Proteus mirabilis assessed as susceptible isolates at minimum inhibitory concentration of 0.12 ug/ml by CLSI broth microdilution method
[11] = system: Pseudomonas aeruginosa; assay: Antibacterial activity against Gentamicin-resistant Pseudomonas aeruginosa assessed as susceptible isolates at minimum inhibitory concentration of 0.5 ug/ml by CLSI broth microdilution method
[12] = system: Escherichia coli; assay: Antibacterial activity against ESBL-producing Escherichia coli assessed as susceptible isolates at minimum inhibitory concentration of 0.12 ug/ml by CLSI broth microdilution method
[13] = system: Acinetobacter baumannii; assay: Antibacterial activity against Acinetobacter baumannii assessed as susceptible isolates at minimum inhibitory concentration of 2 ug/ml by CLSI broth microdilution method
[14] = system: Acinetobacter baumannii; assay: Antibacterial activity against Acinetobacter baumannii assessed as susceptible isolates at minimum inhibitory concentration of 1 ug/ml by CLSI broth microdilution method
[15] = system: Klebsiella pneumoniae; assay: Antibacterial activity against ESBL-producing Klebsiella pneumoniae assessed as susceptible isolates at minimum inhibitory concentration of 4 ug/ml by CLSI broth microdilution method
[16] = system: Pseudomonas aeruginosa; assay: Antibacterial activity against Levofloxacin-resistant Pseudomonas aeruginosa assessed as susceptible isolates at minimum inhibitory concentration of 16 ug/ml by CLSI broth microdilution method
[17] = system: Pseudomonas aeruginosa; assay: Antibacterial activity against Gentamicin-resistant Pseudomonas aeruginosa assessed as susceptible isolates at minimum inhibitory concentration of >16 ug/ml by CLSI broth microdilution method
[18] = system: Pseudomonas aeruginosa; assay: Antibacterial activity against Gentamicin-resistant Pseudomonas aeruginosa assessed as susceptible isolates at minimum inhibitory concentration of 2 ug/ml by CLSI broth microdilution method
[19] = system: Klebsiella aerogenes; assay: Antibacterial activity against Enterobacter aerogenes assessed as susceptible isolates at minimum inhibitory concentration of 0.25 ug/ml by CLSI broth microdilution method
[20] = system: Acinetobacter baumannii; assay: Antibacterial activity against Acinetobacter baumannii assessed as susceptible isolates at minimum inhibitory concentration of 4 ug/ml by CLSI broth microdilution method
[21] = system: Pseudomonas aeruginosa; assay: Antibacterial activity against MDR3 Pseudomonas aeruginosa assessed as susceptible isolates at minimum inhibitory concentration of 1 ug/ml by CLSI broth microdilution method
[22] = system: Proteus mirabilis; assay: Antibacterial activity against Proteus mirabilis assessed as susceptible isolates at minimum inhibitory concentration of 0.25 ug/ml by CLSI broth microdilution method
[23] = system: Klebsiella pneumoniae; assay: Antibacterial activity against ESBL-producing Klebsiella pneumoniae assessed as susceptible isolates at minimum inhibitory concentration of 2 ug/ml by CLSI broth microdilution method
[24] = system: Klebsiella oxytoca; assay: Antibacterial activity against Klebsiella oxytoca assessed as susceptible isolates at minimum inhibitory concentration of 2 ug/ml by CLSI broth microdilution method
[25] = system: Stenotrophomonas maltophilia; assay: Antibacterial activity against Stenotrophomonas maltophilia assessed as susceptible isolates at minimum inhibitory concentration of >16 ug/ml by CLSI broth microdilution method
[26] = system: Pseudomonas aeruginosa; assay: Antibacterial activity against MDR Pseudomonas aeruginosa assessed as susceptible isolates at minimum inhibitory concentration of 2 ug/ml by CLSI broth microdilution method
[27] = system: Pseudomonas aeruginosa; assay: Antibacterial activity against Ciprofloxacin-resistant Pseudomonas aeruginosa assessed as susceptible isolates at minimum inhibitory concentration of 4 ug/ml by CLSI broth microdilution method
[28] = system: Serratia marcescens; assay: Antibacterial activity against Serratia marcescens assessed as susceptible isolates at minimum inhibitory concentration of 4 ug/ml by CLSI broth microdilution method
[29] = system: Klebsiella pneumoniae; assay: Antibacterial activity against ESBL-producing Klebsiella pneumoniae assessed as susceptible isolates at minimum inhibitory concentration of 0.5 ug/ml by CLSI broth microdilution method
[30] = system: Pseudomonas aeruginosa; assay: Antibacterial activity against Pseudomonas aeruginosa assessed as susceptible isolates at minimum inhibitory concentration of 2 ug/ml by CLSI broth microdilution method
[31] = system: Enterobacter cloacae; assay: Antibacterial activity against Enterobacter cloacae assessed as susceptible isolates at minimum inhibitory concentration of >16 ug/ml by CLSI broth microdilution method
[32] = system: Pseudomonas aeruginosa; assay: Antibacterial activity against Ciprofloxacin-resistant Pseudomonas aeruginosa assessed as susceptible isolates at minimum inhibitory concentration of 16 ug/ml by CLSI broth microdilution method
[33] = system: Pseudomonas aeruginosa; assay: Antibacterial activity against Piperacillin-resistant Pseudomonas aeruginosa assessed as susceptible isolates at minimum inhibitory concentration of 2 ug/ml by CLSI broth microdilution method
[34] = system: Pseudomonas aeruginosa; assay: Antibacterial activity against Pseudomonas aeruginosa assessed as susceptible isolates at minimum inhibitory concentration of 16 ug/ml by CLSI broth microdilution method
[35] = system: Klebsiella oxytoca; assay: Antibacterial activity against Klebsiella oxytoca assessed as susceptible isolates at minimum inhibitory concentration of 0.25 ug/ml by CLSI broth microdilution method
[36] = system: Serratia marcescens; assay: Antibacterial activity against Serratia marcescens assessed as susceptible isolates at minimum inhibitory concentration of 1 ug/ml by CLSI broth microdilution method
[37] = system: Pseudomonas aeruginosa; assay: Antibacterial activity against Levofloxacin-resistant Pseudomonas aeruginosa assessed as susceptible isolates at minimum inhibitory concentration of 1 ug/ml by CLSI broth microdilution method
[38] = system: Pseudomonas aeruginosa; assay: Antibacterial activity against Levofloxacin-resistant Pseudomonas aeruginosa assessed as susceptible isolates at minimum inhibitory concentration of 0.5 ug/ml by CLSI broth microdilution method
[39] = system: Klebsiella oxytoca; assay: Antibacterial activity against Klebsiella oxytoca assessed as susceptible isolates at minimum inhibitory concentration of 1 ug/ml by CLSI broth microdilution method
[40] = system: Serratia marcescens; assay: Antibacterial activity against Serratia marcescens assessed as susceptible isolates at minimum inhibitory concentration of 0.5 ug/ml by CLSI broth microdilution method

Sequence: COLISTIN
- Activity [1]: 92.9%
- Activity [2]: 98.1%
- Activity [3]: 84.9%
- Activity [4]: 0%
- Activity [5]: 98.1%
- Activity [6]: 91.6%
- Activity [7]: 99%
- Activity [8]: 95%
- Activity [9]: 100%
- Activity [10]: 0%
- Activity [11]: 3.8%
- Activity [12]: 1.2%
- Activity [13]: 93.5%
- Activity [14]: 74.2%
- Activity [15]: 97.7%
- Activity [16]: 98.2%
- Activity [17]: 100%
- Activity [18]: 99%
- Activity [19]: 18.9%
- Activity [20]: 93.5%
- Activity [21]: 36%
- Activity [22]: 0%
- Activity [23]: 97.1%
- Activity [24]: 95.4%
- Activity [25]: 100%
- Activity [26]: 100%
- Activity [27]: 98.6%
- Activity [28]: 1.9%
- Activity [29]: 77.9%
- Activity [30]: 91.6%
- Activity [31]: 100%
- Activity [32]: 98.6%
- Activity [33]: 92.9%
- Activity [34]: 99.1%
- Activity [35]: 18.5%
- Activity [36]: 1.9%
- Activity [37]: 30.7%
- Activity [38]: 1.8%
- Activity [39]: 91.7%
- Activity [40]: 0%
